Data taken from patent US20150259331A1, “PROTOZOAN PARASITE GROWTH INHIBITORS” (Northeastern University, priority 2014, published 2015).

Assays:
[1] = test system: endocytosis of transferrin; experiment: Receptor-mediated endocytosis of transferrin in the trypanosome; format: cell-based, T. brucei
[2] = test system: L. major promastigote; experiment: L. major promastigote assay; format: cell-based; settings: Leishmania major
[3] = in vitro; settings: for fraction unbound at 4 h, 5 μM: mice plasma
Procedure: Mice plasma (BALB/c mice, male—pool of 3 animals) was collected in-house using K2EDTA as anticoagulant. […] Glipizide (Cat #50402G) was purchased from Apin chemicals, Abingdon, Oxon. Albendazole (Cat #A4673) was purchased from Sigma. Phosphate buffered saline pH 7.4 (0.1 M sodium phosphate and 0.15 M sodium chloride) and RED device inserts were procured from Thermo Scientific, Meridian Rd., Rockford, Ill.
Further 1 mM stock was diluted 200-fold in mice plasma to prepare a concentration of 5 μM. The final DMSO concentration in plasma was 0.5%.
Rapid equilibrium dialysis was performed with a rapid equilibrium dialysis (RED) device containing dialysis membrane with a molecular weight cut-off of 8,000 Daltons. Each dialysis insert contains two chambers. The red chamber is for plasma while the white chamber is for buffer. A 200 μL aliquot of warfarin or test compound at 5 μM (triplicates) was separately added to the plasma chamber and 350 μL of phosphate buffer saline (pH 7.4) was added to the buffer chamber of the inserts. After sealing the RED device with an adhesive film, dialysis was performed at 37° C. with shaking at 100 rpm for 4 hours as per manufacturer's recommendation.
Recovery and stability: A 50 μL aliquot of warfarin or test compound was added to four 0.5 mL microfuse tubes. Two aliquots were frozen immediately (0 minute sample). The other two aliquots were incubated at 37° C. for 4 hours along with the RED device.
Following dialysis, an aliquot of 50 μL was removed from each well (both plasma and buffer side) and diluted with equal volume of opposite matrix (dialyzed with the other matrix) to nullify the matrix effect. Similarly, 50 μL of buffer was added to recovery and stability samples. An aliquot of 100 μL was submitted for LC-MS/MS analysis.
A 25 μL aliquot of warfarin and test compounds were crashed with 100 μL of acetonitrile containing internal standard (glipizide for warfarin and test compound) and vortexed for 5 minutes. The samples were centrifuged at 15,000 rpm at 4° C. for 10 min and 100 μL of supernatant was submitted for LCMS/MS analysis. Samples were monitored for parent compound in MRM mode using LC-MS/MS.

[4] = test system: P. falciparum W2; experiment: P. falciparum W2 assay; format: cell-based; settings: Plasmodium falciparum; strain W2; read-out: P. falciparum W2 (EC50)
[5] = test system: P. falciparum D6; experiment: P. falciparum D6 assay; format: cell-based; settings: Plasmodium falciparum; strain D6
[6] = test system: T. brucei; experiment: Trypanosome DNA content and organelle (cell cycle) analysis; format: cell-based
From the text: The kinetoplast and nucleus can be tracked by microscopy during the cell cycle, which begins with trypanosomes harboring one nucleus (1N) and one kinetoplast (1K) (i.e., 1K1N cells). A kinetoplast that is replicating its (DNA) (i.e., kDNA) and increasing the organelle's mass is observed as an elongated kinetoplast (1Ke). Fission (segregation) of 1Ke kinetoplasts into two daughter kinetoplasts (2K) inside the same cell is coincident with the nuclear S-phase and produces 2K1N trypanosomes. Mitosis then occurs, yielding trypanosomes containing two kinetoplasts and two nuclei (2K2N). Following cell division, each daughter trypanosome has a 1K1N configuration of the organelles.

[7] = male
[8] = Mouse oral pharmacokinetic study; format: in vivo, male BALB/c mice
Procedure: Test system. Healthy male BALB/c mice (8-12 weeks old) weighing between 20 to 35 g were procured from In vivo biosciences, Bengaluru, India. Maximum three mice were housed in each polycarbonate cage. […] The temperature and humidity were recorded by auto-controlled data logger system. Animals were provided laboratory rodent diet ([…], Bengaluru) ad libitum and were provided fresh water ad libitum (reverse osmosis water treated with UV light). Study Design. […] The dosing volume administered for was 10 mL/kg. Formulation Preparation. Formulation of NEU-617 was given orally. The strength of oral suspension formulation was 4 mg/mL. The weighed quantity (39.22 mg) of compound NEU-617 for p.o. dosing was added in a mortar. […] Sample Collection. […] The blood samples (approximately 60 μL) were collected from the retro-orbital plexus into labeled tubes, containing K2EDTA solution, as an anticoagulant. Plasma was harvested from the blood by centrifugation at 4000 rpm for 10 min at 4±2° C. and stored below -70° C. until bioanalysis. […] Following collection, the brain samples were washed by dipping in 20 mL of ice-cold phosphate buffer saline (pH 7.4), dried gently on a filter paper, weighed and placed in polypropylene tubes. Further brain samples were homogenized using ice-cold phosphate buffer saline (pH 7.4) and the total homogenate volume was thrice the brain weight. The brain samples were stored at -70° C. until bioanalysis. Data analysis. The Non-Compartmental-Analysis module in WinNonlin® (Version 5.2) was used to assess the pharmacokinetic parameters. Peak plasma concentrations (Cmax) and time for the peak plasma concentrations (Tmax) were the observed values. The areas under the concentration time curve (AUClast and AUCinf) were calculated by linear trapezoidal rule.

[9] = test system: P. falciparum C235; experiment: P. falciparum C235 assay; format: cell-based; settings: Plasmodium falciparum; strain C235; read-out: P. falciparum C235 (EC50)
[10] = Protein binding (Table 14); settings: plasma
[11] = logD; format: physicochemical
[12] = male, BALB/c, mouse, brain, 40 mg/kg PO single dose
[13] = male, BALB/c, mouse, plasma, 40 mg/kg PO single dose

In the case of `Fc1cccc(COc2ccc(Nc3ncnc4ccc(-c5cccc(N6CCOCC6)c5)cc34)cc2Cl)c1` [Compound 23a, N-(3-Chloro-4-((3-fluorobenzyl)oxy)phenyl)-6-(3-morpholinophenyl)quinazolin-4-amine], the “effect on endocytosis of transferrin” value [1] is reported as “no effect”, the EC50 [2] is reported as 3000 nM and the recovery at 4 h, 5 μM ([3]; male, BALB/c, mouse, pH 7.4) is reported as 100%. For the same compound, the “% Bound Mean (SD)” value ([3]; male, BALB/c, mouse, plasma, pH 7.4) was 99.6%, the fraction unbound at 4 h, 5 μM ([3]; male, BALB/c, mouse, plasma, pH 7.4, % Bound R1, replicate 1, 37° C.) was 0.005 and the fraction unbound at 4 h, 5 μM ([3]; male, BALB/c, mouse, plasma, pH 7.4, % Bound R2, replicate 2, 37° C.) was 0.003. For the same compound, the “% compound remaining at 4 h” value ([3]; plasma stability, 37° C.) was 85%, the EC50 [4] was 680 nM and the EC50 [5] was 230 nM. The “effect on kinetoplast, nucleus and cytokinesis (single cell microscopy)” value [6] was “blocks duplication of the kinetoplast and arrests cytokinesis without inhibiting division of the trypanosome nucleus”, the “proportion of cells with 4C DNA” value ([6]; 7 h incubation, 25% without drug) was 40% and the “fraction of cells with 2C-4C equivalents of DNA” value ([6]; 7 h incubation, 40% without drug) was 25%. For the same compound, the “Male rat hepatocytes median CLint” value [7] was 44.5 μl/min/1E6 cells, the CNS fraction ([8]; 40 mg/kg single oral dose) was 5% and the “time plasma levels were in excess of the EC50” value ([8]; 40 mg/kg single oral dose) was over 12 h. The AUC(0-t) [8, 12] was 92.5 ng·h/mL, the Cmax [8, 12] was 26 ng/mL and the Tmax [8, 12] was 0.5 h. For the same compound, the AUC(0-inf) [8, 13] was 2000 ng·h/mL, the AUC(0-t) [8, 13] was 1950 ng·h/mL and the Cmax [8, 13] was 153 ng/mL. The Tmax [8, 13] was 2 h, the “Human liver microsomes median CLint” value was 63.03 µL/min/mg and the EC50 [9] was 370 nM. The fraction unbound [10] was under 0.01 and the logD [11] was 3.2.
